16 compounds from patent US20240294543A1, “CYCLOHEPTA-THIENO-DIAZEPINE DERIVATIVES AS GABA A GAMMA1 PAM” (Hoffmann-La Roche Inc., priority 2021, published 2024) can be followed below.

The structures appear in SMILES notation.

Assay [1] deals with human GABAA α5β2γ1 receptor (Homo sapiens (Human), UniProt P31644+Q8N1C3). Nature of the assay: Radioligand binding assay, competition for [3H]RO7239181, γ1-containing GABAA subtypes.
Another assay has as its target h-GABA-A α2β2γ1 (Homo sapiens (Human), UniProt P47869+Q8N1C3). In words: Two-electrode voltage clamp electrophysiology in Xenopus oocytes expressing GABAA receptors. The settings on record: for Efficacy (GABA) %: % modulation of GABA EC20 = 100*(Fold increase−1), compound at about 30-fold its Ki α2β2γ1; for Fold increase h-GABA-A α2β2γ1 oocyte @ 30-fold Ki: Xenopus oocytes, GABA EC20, compound at about 30-fold its Ki α2β2γ1. The assay is classed as cell-based. A digest of the protocol:
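Xenopus oocytes injected with receptor subunit RNA and recorded 3–5 days later by two-electrode voltage clamp at −80 mV, room temperature, pH 7.4. GABA applied at EC20 for 1.5 min, with and without test compound. Efficacy = extremum of the point-by-point ratio of the two responses, expressed as % modulation of GABA EC20; ≥3 oocytes per concentration.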
On the technique in general: In two-electrode clamp one electrode senses voltage and the other passes current.

For the compound `Cc1nnc2n1-c1sc3c(c1C(c1c(F)cccc1F)=N[C@H]2C)CC[C@H](F)CC3` (single isomer, unassigned) [Example 14], the Ki – broadly, the equilibrium dissociation constant of an inhibitor or competing ligand from its target – in assay [1] stood at 4.87 nM. At h-GABA-A α2β2γ1, the “Efficacy (GABA) %” value was 181% and the “Fold increase h-GABA-A α2β2γ1 oocyte @ 30-fold Ki” value is given as 2.81.

In turn, `Cc1nnc2n1-c1sc3c(c1C(c1c(F)cccc1F)=N[C@H]2C)CCC(F)C(F)C3` (single isomer, unassigned) [Example 34] yielded a Ki in assay [1] of 20.9 nM. Besides, on h-GABA-A α2β2γ1, the “Efficacy (GABA) %” value is reported as 134% and the “Fold increase h-GABA-A α2β2γ1 oocyte @ 30-fold Ki” value is listed as 2.34.

Compound `C[C@@H]1N=C(c2c(F)cccc2F)c2c(sc3c2COC[C@H](C)O3)-n2nc(C(=O)N3CC(F)C3)nc21` [Example 40, [(7S,15S)-9-(2,6-difluorophenyl)-7,15-dimethyl-13,16-dioxa-18-thia-2,3,5,8-tetrazatetracyclo[8.8.0.02,6.011,17]octadeca-1(10),3,5,8,11(17)-pentaen-4-yl]-(3-fluoroazetidin-1-yl)methanone] displayed a Ki in assay [1] of 2.65 nM. In addition, at h-GABA-A α2β2γ1, the “Efficacy (GABA) %” value stood at 141% and the “Fold increase h-GABA-A α2β2γ1 oocyte @ 30-fold Ki” value came to 2.41.

In turn, `Cc1nnc2n1-c1sc3c(c1C(c1c(F)cccc1F)=NC2)CCCCC3` [Example 1, 9-(2,6-difluorophenyl)-3-methyl-18-thia-2,4,5,8-tetrazatetracyclo[8.8.0.02,6.011,17]octadeca-1(10),3,5,8,11(17)-pentaene] registered a Ki in assay [1] of 1.4 nM. In addition, at h-GABA-A α2β2γ1, the “Efficacy (GABA) %” value stood at 64% and the “Fold increase h-GABA-A α2β2γ1 oocyte @ 30-fold Ki” value amounted to 1.64.

`Cc1nnc2n1-c1sc3c(c1C(c1c(F)cccc1F)=N[C@H]2C)CCCCC3` [Example 2, (7S)-9-(2,6-difluorophenyl)-3,7-dimethyl-18-thia-2,4,5,8-tetrazatetracyclo[8.8.0.02,6.011,17]octadeca-1(10),3,5,8,11(17)-pentaene] displayed a Ki in assay [1] of 1.7 nM. For the same compound, on h-GABA-A α2β2γ1, the “Efficacy (GABA) %” value came to 66% and the “Fold increase h-GABA-A α2β2γ1 oocyte @ 30-fold Ki” value amounted to 1.66.

On to `Cc1nnc2n1-c1sc3c(c1C(c1c(F)cccc1F)=N[C@H]2C)OCCCC3` [Example 33, (7S)-9-(2,6-difluorophenyl)-3,7-dimethyl-12-oxa-18-thia-2,4,5,8-tetrazatetracyclo[8.8.0.02,6.011,17]octadeca-1(10),3,5,8,11(17)-pentaene], for which the inhibition constant Ki in assay [1] came to 21.8 nM. On h-GABA-A α2β2γ1, the “Efficacy (GABA) %” value turned out to be 76% and the “Fold increase h-GABA-A α2β2γ1 oocyte @ 30-fold Ki” value is listed as 1.76.

`C[C@@H]1N=C(c2c(F)cccc2F)c2c(sc3c2COCCC3)-n2cc(C(=O)NCC3(O)CC3)nc21` [Example 68, (7S)-9-(2,6-difluorophenyl)-N-[(1-hydroxycyclopropyl)methyl]-7-methyl-13-oxa-18-thia-2,5,8-triazatetracyclo[8.8.0.02,6.011,17]octadeca-1(10),3,5,8,11(17)-pentaene-4-carboxamide] registered a Ki in assay [1] of 2.95 nM. Moreover, on h-GABA-A α2β2γ1, the “Efficacy (GABA) %” value came to 159% and the “Fold increase h-GABA-A α2β2γ1 oocyte @ 30-fold Ki” value worked out at 2.59.

`C[C@@H]1N=C(c2c(F)cccc2F)c2c(sc3c2COCCO3)-n2nc(C(=O)N3CC(OC(C)(C)C)C3)nc21` [Example 29, (3-tert-butoxyazetidin-1-yl)-[(7S)-9-(2,6-difluorophenyl)-7-methyl-13,16-dioxa-18-thia-2,3,5,8-tetrazatetracyclo[8.8.0.02,6.011,17]octadeca-1(10),3,5,8,11(17)-pentaen-4-yl]methanone] yielded a Ki in assay [1] of 1.82 nM. Further, at h-GABA-A α2β2γ1, the “Efficacy (GABA) %” value was 79% and the “Fold increase h-GABA-A α2β2γ1 oocyte @ 30-fold Ki” value turned out to be 1.79.

`C[C@@H]1N=C(c2c(F)cccc2F)c2c(sc3c2COCCO3)-n2nc(C(=O)NCCF)nc21` [Example 25, (7S)-9-(2,6-difluorophenyl)-N-(2-fluoroethyl)-7-methyl-13,16-dioxa-18-thia-2,3,5,8-tetrazatetracyclo[8.8.0.02,6.011,17]octadeca-1(10),3,5,8,11(17)-pentaene-4-carboxamide] showed a Ki in assay [1] of 2.1 nM. Besides, on h-GABA-A α2β2γ1, the “Efficacy (GABA) %” value came out at 99% and the “Fold increase h-GABA-A α2β2γ1 oocyte @ 30-fold Ki” value amounted to 1.99.

In assay [1], `C[C@@H]1N=C(c2c(F)cccc2F)c2c(sc3c2CCCCC3)-n2ccc(=O)nc21` [Example 7, (8S)-10-(2,6-difluorophenyl)-8-methyl-19-thia-2,6,9-triazatetracyclo[9.8.0.02,7.012,18]nonadeca-1(11),3,6,9,12(18)-pentaen-5-one] showed a Ki of 2.24 nM. At h-GABA-A α2β2γ1, the “Efficacy (GABA) %” value came to 169% and the “Fold increase h-GABA-A α2β2γ1 oocyte @ 30-fold Ki” value amounted to 2.69.

As for `C[C@@H]1N=C(c2c(F)cccc2F)c2c(sc3c2COCCC3)-n2nc(C(=O)NC[C@@](C)(O)C(F)(F)F)nc21` [Example 70, (7S)-9-(2,6-difluorophenyl)-7-methyl-N-[(2R)-3,3,3-trifluoro-2-hydroxy-2-methyl-propyl]-13-oxa-18-thia-2,3,5,8-tetrazatetracyclo[8.8.0.02,6.011,17]octadeca-1(10),3,5,8,11(17)-pentaene-4-carboxamide], in assay [1], the Ki amounted to 5.8 nM. On h-GABA-A α2β2γ1, the “Efficacy (GABA) %” value came out at 148% and the “Fold increase h-GABA-A α2β2γ1 oocyte @ 30-fold Ki” value is listed as 2.48.

For the compound `C[C@@H]1N=C(c2c(F)cccc2F)c2c(sc3c2COCCO3)-n2c(C3CC3)nnc21` [Example 43, (7S)-3-cyclopropyl-9-(2,6-difluorophenyl)-7-methyl-13,16-dioxa-18-thia-2,4,5,8-tetrazatetracyclo[8.8.0.02,6.011,17]octadeca-1(10),3,5,8,11(17)-pentaene], the Ki in assay [1] was 4.45 nM. On h-GABA-A α2β2γ1, the “Efficacy (GABA) %” value turned out to be 94% and the “Fold increase h-GABA-A α2β2γ1 oocyte @ 30-fold Ki” value stood at 1.94.

For `Cc1nnc2n1-c1sc3c(c1C(c1c(F)cccc1F)=N[C@H]2C)CC[C@@H](F)CC3` (single isomer, unassigned) [Example 15], the affinity in assay [1] corresponds to a Ki of 8 nM. Moreover, at h-GABA-A α2β2γ1, the “Efficacy (GABA) %” value turned out to be 144% and the “Fold increase h-GABA-A α2β2γ1 oocyte @ 30-fold Ki” value worked out at 2.44.

With `Cc1nnc2n1-c1sc3c(c1C(c1c(F)cccc1F)=N[C@H]2C)CCCC[C@H]3F` (single isomer, unassigned) [Example 11], in assay [1], the Ki turned out to be 2.7 nM. Also, at h-GABA-A α2β2γ1, the “Efficacy (GABA) %” value is 88% and the “Fold increase h-GABA-A α2β2γ1 oocyte @ 30-fold Ki” value worked out at 1.88.

Turning to `Cc1nnc2n1-c1sc3c(c1C(c1c(F)cccc1F)=N[C@H]2C)CCCC(O)C3` (mixture of isomers) [Example 13, (7S,15RS)-9-(2,6-difluorophenyl)-3,7-dimethyl-18-thia-2,4,5,8-tetrazatetracyclo[8.8.0.02,6.011,17]octadeca-1(10),3,5,8,11(17)-pentaen-15-ol], the Ki in assay [1] was 5.67 nM. In addition, at h-GABA-A α2β2γ1, the “Efficacy (GABA) %” value was 80% and the “Fold increase h-GABA-A α2β2γ1 oocyte @ 30-fold Ki” value stood at 1.80.

The compound `C[C@@H]1N=C(c2c(F)cccc2F)c2c(sc3c2COC[C@H](C)O3)-n2nc(C(=O)NCCO)nc21` [Example 53, (7S,15S)-9-(2,6-difluorophenyl)-N-(2-hydroxyethyl)-7,15-dimethyl-13,16-dioxa-18-thia-2,3,5,8-tetrazatetracyclo[8.8.0.02,6.011,17]octadeca-1(10),3,5,8,11(17)-pentaene-4-carboxamide] displayed a Ki in assay [1] of 6.2 nM. Also, at h-GABA-A α2β2γ1, the “Efficacy (GABA) %” value was found to be 237% and the “Fold increase h-GABA-A α2β2γ1 oocyte @ 30-fold Ki” value amounted to 3.37.
